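The compound was tested at five concentrations on cells cultured in 96-well plates, with a 48-hour exposure period. At the GI50, growth is halved.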 Active and inactive are the calls of the source. Rule as the data show it: active = GI50 up to about 1.1 µM and inactive = higher.
What was measured:
Assay in all cases: NCI tumour cell line growth inhibition, 48 h
SK-MEL-5 = tested on: SK-MEL-5
OVCAR-4 = tested on: OVCAR-4
NCI-H226 = tested on: NCI-H226
RPMI-8226 = tested on: RPMI-8226
SF-539 = tested on: SF-539
TK-10 = tested on: TK-10
COLO 205 = tested on: COLO 205
CCRF-CEM = tested on: CCRF-CEM
HOP-62 = tested on: HOP-62
OVCAR-8 = tested on: OVCAR-8
A549 = tested on: A549
ACHN = tested on: ACHN
SK-MEL-28 = tested on: SK-MEL-28
SN12C = tested on: SN12C
MOLT-4 = tested on: MOLT-4
M14 = tested on: M14
U-251 = tested on: U-251
HCT-15 = tested on: HCT-15
SNB-75 = tested on: SNB-75
CAKI-1 = tested on: CAKI-1

Row | SMILES | GI50 (SK-MEL-5) | GI50 (OVCAR-4) | GI50 (NCI-H226) | GI50 (RPMI-8226) | GI50 (SF-539) | GI50 (TK-10) | GI50 (COLO 205) | GI50 (CCRF-CEM) | GI50 (HOP-62) | GI50 (OVCAR-8) | GI50 (A549) | GI50 (ACHN) | GI50 (SK-MEL-28) | GI50 (SN12C) | GI50 (MOLT-4) | GI50 (M14) | GI50 (U-251) | GI50 (HCT-15) [µM] | GI50 (SNB-75) | GI50 (CAKI-1)
1 | O=c1c(O)c(-c2ccc(O)c(O)c2)oc2cc(O)ccc12 [FISETIN] | 13.1 µM (inactive) | 31 µM (inactive) | 9.79 µM (inactive) | 26.8 µM (inactive) | 12 µM (inactive) | 29.7 µM (inactive) | 47.4 µM (inactive) | 8.99 µM (inactive) | 20.2 µM (inactive) | 21.8 µM (inactive) | 30.3 µM (inactive) | 18.7 µM (inactive) | 21.7 µM (inactive) | 20.8 µM (inactive) | 17 µM (inactive) | 18.2 µM (inactive) | 7.14 µM (inactive) | 14.4 | 5.27 µM (inactive) | 
2 | CC(=O)O[C@]12CCCCCC1C1(O)C(O)CCCCC12 (some centres undefined) | > 100 µM (inactive) | > 100 µM (inactive) | > 100 µM (inactive) | > 100 µM (inactive) |  | > 100 µM (inactive) | > 100 µM (inactive) | > 100 µM (inactive) | > 100 µM (inactive) | > 100 µM (inactive) | > 100 µM (inactive) | > 100 µM (inactive) | > 100 µM (inactive) | > 100 µM (inactive) | > 100 µM (inactive) | > 100 µM (inactive) | > 100 µM (inactive) | > 100 | > 100 µM (inactive) | 
3 | COc1cc2ccc(C(=O)O)cc2cc1OC | > 100 µM (inactive) | > 100 µM (inactive) | > 100 µM (inactive) | > 100 µM (inactive) | > 100 µM (inactive) | > 100 µM (inactive) | > 100 µM (inactive) | > 100 µM (inactive) | > 100 µM (inactive) | > 100 µM (inactive) | > 100 µM (inactive) | > 100 µM (inactive) | > 100 µM (inactive) | > 100 µM (inactive) | > 100 µM (inactive) | > 100 µM (inactive) | > 100 µM (inactive) | > 100 | 37.4 µM (inactive) | 
4 | O=C(CC/C(CC(=O)c1ccc(Cl)cc1)=N\O)Nc1cccc(Cl)c1 | > 100 µM (inactive) | > 100 µM (inactive) |  | > 100 µM (inactive) | > 100 µM (inactive) | > 100 µM (inactive) | > 100 µM (inactive) | > 100 µM (inactive) | > 100 µM (inactive) | > 100 µM (inactive) | > 100 µM (inactive) | > 100 µM (inactive) | > 100 µM (inactive) | > 100 µM (inactive) | > 100 µM (inactive) | > 100 µM (inactive) | > 100 µM (inactive) | > 100 | 80.7 µM (inactive) | > 100 µM (inactive)
5 | CCOP(=O)(OCC)OC1c2[nH]ccc2-c2cc(C(=O)OC)[nH]c2C1OC (centres undefined) | 38.5 µM (inactive) | > 100 µM (inactive) |  |  | > 100 µM (inactive) | 73.6 µM (inactive) | > 100 µM (inactive) | > 100 µM (inactive) | 87.3 µM (inactive) | > 100 µM (inactive) | > 100 µM (inactive) | > 100 µM (inactive) | 82 µM (inactive) | > 100 µM (inactive) | > 100 µM (inactive) | > 100 µM (inactive) | > 100 µM (inactive) | 59.3 | 89.3 µM (inactive) | 70.3 µM (inactive)
6 | CCC(CCCCC1CC[C@H]2CC(=O)C[C@@H]12)OC (some centres undefined) | 79.8 µM (inactive) |  | > 100 µM (inactive) |  | > 100 µM (inactive) | > 100 µM (inactive) | > 100 µM (inactive) | 79.8 µM (inactive) |  | > 100 µM (inactive) | > 100 µM (inactive) | > 100 µM (inactive) | > 100 µM (inactive) | > 100 µM (inactive) | > 100 µM (inactive) |  | > 100 µM (inactive) | > 100 | > 100 µM (inactive) | > 100 µM (inactive)
